Columns and labels:
[1] = tested on: Magnaporthe grisea; test: whole plant or invertebrate; format: in vivo; details: Blast on rice; control value class
[2] = tested on: Alternaia brassicicola; test: Test Example C: Alternaria sooty spot on cabbage; format: in vivo; details: Alternaria sooty spot on cabbage; control value class
Text: Seeds of a test plant (cabbage variety: Shikidori) were planted and cultivated until the cotyledons extended.
<Control Value> Control value=100{1−(n/3)}

[3] = tested on: Puccinia recondita; test: Test Example E: Brown rust on wheat; format: in vivo; details: Brown rust on wheat; control value class
[4] = tested on: Phytophthora infestans; test: whole plant or invertebrate; format: in vivo; details: Late blight on tomato; control value class
[5] = tested on: Botrytis cinerea; test: Test Example B: Gray mold on tomato; details: Gray mold on tomato; control value class
[6] = tested on: Plasmopara viticola; test: Test Example G: Downy mildew on vine; details: Downy mildew on vine; 250 ppm spray, 7 to 10 days after inoculation
[7] = tested on: Colletotrichum orbiculare; test: Test Example H: Anthracnose on cucumber; details: Anthracnose on cucumber; 250 ppm spray, 6 to 10 days after inoculation
[8] = tested on: Blumeria graminis f. sp. hordei; test: Test Example D: Powdery mildew on barley; details: Powdery mildew on barley; control value class

CCOC(C)(c1cc(Cl)c(=O)n(CC)c1-c1c(F)cc(OC)cc1F)C(C)C (stereo not shown) [compound 241]
H (more than 50% control value): Test A control value [1] | Test C control value [2] | Test E control value [3] | Test B control value [5] | Test H control value [7] | Test D control value [8]
L (50% or less control value): Test F control value [4] | Test G control value [6]

CCCOC(C)(c1cc(Cl)c(=O)n(CC)c1-c1c(F)cc(OC)cc1F)C(C)C (stereo not shown) [compound 242]
L (50% or less control value): Test A control value [1] | Test E control value [3] | Test F control value [4] | Test B control value [5] | Test G control value [6] | Test H control value [7] | Test D control value [8]
H (more than 50% control value): Test C control value [2]

C=C(c1cc(Cl)c(=O)n(CC)c1-c1c(F)cc(F)cc1F)C(C)C [compound 243]
L (50% or less control value): Test F control value [4] | Test G control value [6]
H (more than 50% control value): Test A control value [1] | Test C control value [2] | Test E control value [3] | Test B control value [5] | Test H control value [7] | Test D control value [8]

CCn1c(-c2c(F)cc(F)cc2F)c(C(C)(O)C2CCCC2)cc(Cl)c1=O (stereo not shown) [compound 244]
L (50% or less control value): Test F control value [4] | Test G control value [6]
H (more than 50% control value): Test A control value [1] | Test C control value [2] | Test E control value [3] | Test B control value [5] | Test H control value [7] | Test D control value [8]

CCn1c(-c2c(F)cc(F)cc2F)c(C(C)(OC)C2CCCC2)cc(Cl)c1=O (stereo not shown) [compound 245]
L (50% or less control value): Test A control value [1] | Test E control value [3] | Test F control value [4] | Test B control value [5] | Test G control value [6] | Test H control value [7] | Test D control value [8]
H (more than 50% control value): Test C control value [2]

CCn1c(-c2ccc(OC)cc2)c(C(O)C(C)C)cc(Cl)c1=O (stereo not shown) [compound 246]
L (50% or less control value): Test A control value [1] | Test F control value [4] | Test B control value [5] | Test G control value [6] | Test H control value [7] | Test D control value [8]
H (more than 50% control value): Test C control value [2] | Test E control value [3]

CCOC(C)(c1cc(Cl)c(=O)n(CC)c1-c1ccc(OC)cc1)C(C)C (stereo not shown) [compound 247]
H (more than 50% control value): Test B control value [5] | Test D control value [8]
L (50% or less control value): Test A control value [1] | Test C control value [2] | Test E control value [3] | Test F control value [4] | Test G control value [6] | Test H control value [7]

CCCOC(C)(c1cc(Cl)c(=O)n(CC)c1-c1ccc(OC)cc1)C(C)C (stereo not shown) [compound 248]
L (50% or less control value): Test C control value [2] | Test E control value [3] | Test F control value [4] | Test B control value [5] | Test G control value [6] | Test H control value [7] | Test D control value [8]
H (more than 50% control value): Test A control value [1]

CCn1c(-c2ccc(OC)cc2)c(C(C)(F)C(C)C)cc(Cl)c1=O (stereo not shown) [compound 249]
H (more than 50% control value): Test C control value [2] | Test E control value [3] | Test B control value [5] | Test H control value [7]
L (50% or less control value): Test A control value [1] | Test F control value [4] | Test G control value [6] | Test D control value [8]

CCn1c(-c2ccc(C#N)cc2)c(C(C)(OC)C(C)C)cc(Cl)c1=O (stereo not shown) [compound 250]
L (50% or less control value): Test A control value [1] | Test C control value [2] | Test F control value [4] | Test G control value [6] | Test H control value [7] | Test D control value [8]
H (more than 50% control value): Test E control value [3] | Test B control value [5]

CCOC(C)(c1cc(Cl)c(=O)n(CC)c1-c1ccc(C#N)cc1)C(C)C (stereo not shown) [compound 251]
L (50% or less control value): Test A control value [1] | Test E control value [3] | Test F control value [4] | Test B control value [5] | Test G control value [6] | Test H control value [7] | Test D control value [8]
H (more than 50% control value): Test C control value [2]

CCCOC(C)(c1cc(Cl)c(=O)n(CC)c1-c1ccc(C#N)cc1)C(C)C (stereo not shown) [compound 252]
L (50% or less control value): Test C control value [2] | Test E control value [3] | Test F control value [4] | Test B control value [5] | Test G control value [6] | Test H control value [7] | Test D control value [8]
H (more than 50% control value): Test A control value [1]

CCn1c(-c2ccc(C#N)cc2)c(C(C)(F)C(C)C)cc(Cl)c1=O (stereo not shown) [compound 253]
H (more than 50% control value): Test C control value [2] | Test B control value [5]
L (50% or less control value): Test A control value [1] | Test E control value [3] | Test F control value [4] | Test G control value [6] | Test H control value [7] | Test D control value [8]

CCn1c(-c2ccc(O)cc2Cl)c(CC(C)C)cc(Cl)c1=O [compound 254]
L (50% or less control value): Test A control value [1] | Test G control value [6] | Test D control value [8]
H (more than 50% control value): Test C control value [2] | Test E control value [3] | Test F control value [4] | Test B control value [5] | Test H control value [7]

CCn1c(-c2ccccc2F)c(CC(C)C)cc(Cl)c1=O [compound 255]
L (50% or less control value): Test F control value [4] | Test G control value [6]
H (more than 50% control value): Test A control value [1] | Test C control value [2] | Test E control value [3] | Test B control value [5] | Test H control value [7] | Test D control value [8]

CCOC(C)(c1cc(Cl)c(=O)n(CC)c1-c1c(F)cc(F)cc1F)C1CCCC1 (stereo not shown) [compound 256]
H (more than 50% control value): Test E control value [3] | Test G control value [6] | Test D control value [8]
L (50% or less control value): Test A control value [1] | Test C control value [2] | Test F control value [4] | Test B control value [5] | Test H control value [7]

CCCOC(C)(c1cc(Cl)c(=O)n(CC)c1-c1c(F)cc(F)cc1F)C1CCCC1 (stereo not shown) [compound 257]
L (50% or less control value): Test A control value [1] | Test E control value [3] | Test F control value [4] | Test B control value [5] | Test G control value [6] | Test D control value [8]
H (more than 50% control value): Test C control value [2] | Test H control value [7]

Source: patent publication US11147272B2, “Pyridone compounds and agricultural and horticultural fungicides comprising the same as active ingredients” (MITSUI CHEMICALS AGRO, INC., priority 2017, dated 2021)
